Results published in patent publication EP4385997A1 (priority 2022, dated 2024).
Where no end group is shown, it is not given here.

Tested on: Xylella fastidiosa DSM10026/ATCC35879

## KWKLFKKIEKVGQNIRDGIIKAGPAVAVVGQATQIAK-NH2 (C-terminus assumed) [Cecropin A BR001]
  MIC (µM): 6.25 µM
  MIC (µg mL^-1): 25 µg/mL
